Data from patent US8178506B2, “Oligomeric compounds and compositions for use in modulation of small non-coding RNAs” (Regulus Therapeutics Inc., priority 2003, dated 2012).
In the oligonucleotide strings, read from the 5' end, every base follows the letter of its sugar. An asterisk marks phosphorothioate; unmarked linkages are phosphodiester. Other units and linkages are bracketed, terminal groups are in braces. A string of capitals states the bases alone. e = 2'-O-(2-methoxyethyl) (MOE); [5mC] = 5-methylcytosine

Tests used:
[1] = test system: adipocytes; assay: Triglyceride accumulation assay in adipocytes; type: cell-based, human
[2] = test system: aP2; assay: aP2 mRNA expression in adipocytes (real-time PCR); type: cell-based, human; conditions: for aP2 mRNA / AP2 mRNA: differentiating adipocytes transfected with oligomeric compound; for aP2 mRNA: Table 75; for AP2 (mRNA expression): adipocytes, 250 nM oligomeric compound, day nine post-transfection, relative to control (1.0)
[3] = test system: HSL; assay: HSL mRNA expression in adipocytes (real-time PCR); type: cell-based, human; conditions: for HSL mRNA: differentiating adipocytes transfected with oligomeric compound; for HSL (mRNA expression): adipocytes, 250 nM oligomeric compound, day nine post-transfection, relative to control (1.0)
[4] = test system: Glut4; assay: Glut4 mRNA expression in adipocytes (real-time PCR); type: cell-based, human; conditions: for GLUT4 mRNA: differentiating adipocytes transfected with oligomeric compound; for Glut4 (mRNA expression): adipocytes, 250 nM oligomeric compound, day nine post-transfection, relative to control (1.0)
[5] = test system: PPARγ; assay: PPARγ mRNA expression in adipocytes (real-time PCR); type: cell-based, human; conditions: for PPAR gamma mRNA: differentiating adipocytes transfected with oligomeric compound; for PPAR gamma (mRNA expression): adipocytes, 250 nM oligomeric compound, day nine post-transfection, relative to control (1.0)
[6] = test system: HuVECs; assay: Endothelial tube formation assay in HuVECs; conditions: 75 nM oligomeric compound
Description: In some embodiments, HUVECs are used to measure the effects of oligomeric compounds of the invention on endothelial tube formation activity. The tube formation assay is performed using an in vitro Angiogenesis Assay Kit (Chemicon International, Temecula, Calif.).
Untreated control cells receive LIPOFECTIN™ only.
Approximately fifty hours after transfection, cells are transferred to 96-well plates coated with ECMatrix™ (Chemicon International). Under these conditions, untreated HUVECs form tube-like structures. After an overnight incubation at 37° C., treated and untreated cells are inspected by light microscopy. Tube formation in cells treated with oligomeric compounds is compared to that in untreated control cells. Individual wells are assigned discrete scores from 1 to 5 depending on the extent of tube formation. A score of 1 refers to a well with no tube formation while a score of 5 is given to wells where all cells are forming an extensive tubular network.
In one embodiment, primary human umbilical vein endothelial cells (HuVECs) were used to measure the effects of oligomeric compounds targeted to miRNAs on tube formation activity. HuVECs were routinely cultured in EBM (Clonetics Corporation, Walkersville, Md.) supplemented with SingleQuots supplements (Clonetics Corporation, Walkersville, Md.). […] HuVECs are plated at 3000 cells/well in 96-well plates. One day later, cells are transfected with oligomeric compounds. The tube formation assay is performed using an in vitro Angiogenesis Assay Kit (Chemicon International, Temecula, Calif.).
ISIS 29248 and ISIS 196103 are chimeric 5-10-52′-MOE gapmer oligonucleotides. […] All cytidine residues are 5-methylcytidines. ISIS 342672 (SEQ ID NO: 789) contains 13 mismatches with respect to the mature mir-143 miRNA, and was also used as a negative control. ISIS 342672 is a uniform 2′-MOE phosphorothioate oligomeric compound 22 nucleotides in length. All cytidine residues are 5-methylcytidines.
Oligomeric compound was mixed with LIPOFECTIN™ (Invitrogen Life Technologies, Carlsbad, Calif.) in OPTI-MEM™ (Invitrogen Life Technologies, Carlsbad, Calif.) to achieve a final concentration of 75 nM of oligomeric compound and 2.25 μg/mL LIPOFECTIN™. Before adding to cells, the oligomeric compound, LIPOFECTIN™ and OPTI-MEM™ were mixed thoroughly and incubated for 0.5 hrs. Untreated control cells received LIPOFECTIN™ only. […] Compounds targeted to miRNAs were tested in triplicate, and ISIS 29848 was tested in up to six replicates. […] 100 μL of full growth medium was added to each well. Fifty hours after transfection, cells are transferred to 96-well plates coated with ECMa-trix™ (Chemicon Inter-national). Under these conditions, untreated HuVECs form tube-like structures.

[7] = differentiating adipocytes transfected with oligomeric compound, Table 75
[8] = adipocytes, 250 nM oligomeric compound, relative to control (1.0), Table 15
[9] = adipocytes, 250 nM oligomeric compound, relative to control (1.0), Table 16
[10] = differentiating adipocytes transfected with oligomeric compound

| Substance | TG (triglyceride accumulation) [1, 7] | aP2 mRNA [2] | HSL mRNA ([3]; Table 75) | GLUT4 mRNA ([4]; Table 75) | PPAR gamma mRNA ([5]; Table 75) | % Activity Relative to UTC (tube formation) ([6]; Table 57) [%] | TG (triglyceride accumulation) [1, 8] | TG (triglyceride accumulation) [1, 9] | AP2 (mRNA expression) ([2]; Table 15) | AP2 (mRNA expression) ([2]; Table 16) | HSL (mRNA expression) ([3]; Table 15) | HSL (mRNA expression) ([3]; Table 16) | Glut4 (mRNA expression) ([4]; Table 15) | Glut4 (mRNA expression) ([4]; Table 16) | PPAR gamma (mRNA expression) ([5]; Table 15) | PPAR gamma (mRNA expression) ([5]; Table 16) | % Activity Relative to UTC (tube formation) ([6]; Table 58) [%] | other results |
| --- | --- | --- | --- | --- | --- | --- | --- | --- | --- | --- | --- | --- | --- | --- | --- | --- | --- | --- |
| 327918 (antisense e[5mC]*eT*eA*eG*eT*eA*e[5mC]*eA*eT*e[5mC]*eA*eT*e[5mC]*eT*eA*eT*eA*e[5mC]*eT*eG*eT*eA) [compound 327918] | 65 percentage of untreated control (UTC) | 91 percentage of untreated control (UTC) | 85 percentage of untreated control (UTC) | 66 percentage of untreated control (UTC) | 74 percentage of untreated control (UTC) | 96.6 | – | – | – | – | – | – | – | – | – | – | – | – |
| 327919 (antisense eG*eA*eA*eA*e[5mC]*e[5mC]*e[5mC]*eA*eG*e[5mC]*eA*eG*eA*e[5mC]*eA*eA*eT*eG*eT*eA*eG*e[5mC]*eT) [compound 327919] | – | – | – | – | – | 103.5 | 0.58 | 0.40 | 0.79 | 0.48 | 0.57 | 0.37 | 0.32 | 0.18 | 0.52 | 0.57 | – | – |
| 327920 (antisense eG*eA*eG*eA*e[5mC]*e[5mC]*e[5mC]*eA*eG*eT*eA*eG*e[5mC]*e[5mC]*eA*eG*eA*eT*eG*eT*eA*eG*e[5mC]*eT) [compound 327920] | 20 percentage of untreated control (UTC) | 22 percentage of untreated control (UTC) | 14 percentage of untreated control (UTC) | 0 percentage of untreated control (UTC) | 34 percentage of untreated control (UTC) | 41.4 | – | – | – | – | – | – | – | – | – | – | – | – |
| 327921 (antisense e[5mC]*eT*eT*e[5mC]*e[5mC]*eA*eG*eT*e[5mC]*eG*eG*eG*eG*eA*eT*eG*eT*eT*eT*eA*e[5mC]*eA) [compound 327921] | 56 percentage of untreated control (UTC) | 76 percentage of untreated control (UTC) | 76 percentage of untreated control (UTC) | 36 percentage of untreated control (UTC) | 75 percentage of untreated control (UTC) | 96.6 | – | – | – | – | – | – | – | – | – | – | – | – |
| 327922 (antisense eT*e[5mC]*eA*eG*eT*eT*eT*eT*eG*e[5mC]*eA*eT*eG*eG*eA*eT*eT*eT*eG*e[5mC]*eA*e[5mC]*eA) [compound 327922] | – | – | – | – | – | 89.7 | 1.09 | 0.43 | 0.99 | 0.75 | 0.95 | 0.72 | 1.75 | 0.43 | 1.37 | 0.80 | – | – |
| 327923 (antisense eG*eA*eA*eA*eG*eA*eG*eA*e[5mC]*e[5mC]*eG*eG*eT*eT*e[5mC]*eA*e[5mC]*eT*eG*eT*eG*eA) [compound 327923] | 88 percentage of untreated control (UTC) | 65 percentage of untreated control (UTC) | 64 percentage of untreated control (UTC) | 54 percentage of untreated control (UTC) | 77 percentage of untreated control (UTC) | 48.3 | – | – | – | – | – | – | – | – | – | – | – | – |
| 327925 (antisense eT*eA*eG*e[5mC]*eT*eG*eG*eT*eT*eG*eA*eA*eG*eG*eG*eG*eA*e[5mC]*e[5mC]*eA*eA) [compound 327925] | – | – | – | – | – | – | 0.72 | 0.63 | 0.77 | 0.77 | 0.78 | 0.75 | 1.99 | 0.61 | 0.60 | 0.83 | 44.4 | – |
| 327927 (antisense eT*eG*eT*eA*eA*eA*e[5mC]*e[5mC]*eA*eT*eG*eA*eT*eG*eT*eG*e[5mC]*eT*eG*e[5mC]*eT*eA) [compound 327927] | – | – | – | – | – | – | – | – | – | – | – | – | – | – | – | – | 59.3 | TG (triglyceride accumulation) [1, 10]: 125 percentage of untreated control (UTC); AP2 mRNA [2]: 114 percentage of untreated control (UTC); HSL mRNA [3]: 120 percentage of untreated control (UTC); GLUT4 mRNA [4]: 120 percentage of untreated control (UTC); PPAR gamma mRNA [5]: 108 percentage of untreated control (UTC) |
| 327928 (antisense eA*eA*e[5mC]*e[5mC]*eG*eA*eT*eT*eT*e[5mC]*eA*eG*eA*eT*eG*eG*eT*eG*e[5mC]*eT*eA*eG) [compound 327928] | – | – | – | – | – | – | – | – | – | – | – | – | – | – | – | – | 37.0 | TG (triglyceride accumulation) [1, 10]: 45 percentage of untreated control (UTC); AP2 mRNA [2]: 77 percentage of untreated control (UTC); HSL mRNA [3]: 52 percentage of untreated control (UTC); GLUT4 mRNA [4]: 39 percentage of untreated control (UTC); PPAR gamma mRNA [5]: 57 percentage of untreated control (UTC) |
| 327931 (antisense eA*eA*e[5mC]*e[5mC]*eA*eT*eA*e[5mC]*eA*eA*e[5mC]*e[5mC]*eT*eA*e[5mC]*eT*eA*e[5mC]*e[5mC]*eT*e[5mC]*eA) [compound 327931] | – | – | – | – | – | – | – | 1.11 | – | 1.00 | – | 0.99 | – | 1.37 | – | 1.56 | 103.7 | – |
| 327933 (antisense eA*eA*eG*eG*eG*eA*eT*eT*e[5mC]*e[5mC]*eT*eG*eG*eG*eA*eA*eA*eA*e[5mC]*eT*eG*eG*eA*e[5mC]) [compound 327933] | – | – | – | – | – | – | 1.48 | – | 1.46 | – | 1.35 | – | 2.52 | – | 1.52 | – | 59.3 | TG (triglyceride accumulation) [1, 10]: 127 percentage of untreated control (UTC); AP2 mRNA [2]: 82 percentage of untreated control (UTC); HSL mRNA [3]: 132 percentage of untreated control (UTC); GLUT4 mRNA [4]: 127 percentage of untreated control (UTC); PPAR gamma mRNA [5]: 100 percentage of untreated control (UTC) |
| 327934 (antisense eG*eG*eT*eA*e[5mC]*eA*eA*eT*e[5mC]*eA*eA*e[5mC]*eG*eG*eT*e[5mC]*eG*eA*eT*eG*eG*eT) [compound 327934] | – | – | – | – | – | – | 0.99 | 0.62 | 1.20 | 0.66 | 1.02 | 0.64 | 1.22 | 0.44 | 0.97 | 0.72 | 51.9 | – |
| 327941 (antisense eA*eA*e[5mC]*e[5mC]*e[5mC]*eA*e[5mC]*e[5mC]*eG*eA*e[5mC]*eA*eG*e[5mC]*eA*eA*eT*eG*eA*eA*eT*eG*eT*eT) [compound 327941] | – | – | – | – | – | – | 1.31 | 0.42 | 1.78 | 0.88 | 1.73 | 0.81 | 2.07 | 0.44 | 0.80 | 0.86 | 74.1 | – |
